Experimental data taken from PMC10298626 (International Journal of Molecular Sciences, 2023).
Marks after values point to notes of the source that are not given here.

Columns and labels:
p38 = assay: LPS-induced phosphorylation of p38 (immunoblotting) in RAW264.7 cells; format: cell-based, Mouse; conditions: 20, 40, and 80 μM pretreatment 2 h; LPS 500 ng/mL 30 min
Protocol: (§1) RAW264.7 cells were seeded into 6-well plates (2 × 10^6 cells/well) and incubated for 24 h. The cells were incubated with 20, 40, and 80 μM of coumarin derivative 2 for 2 h, and then LPS (500 ng/mL) was added for 30 min (for phosphorylation of ERK, JNK, p38, and p65) and 24 h (for protein expression of iNOS).
(§2) The cells were washed with PBS and lysed with radioimmunoprecipitation assay buffer containing 1 mM dithiothreitol (Wako, Tokyo, Japan), phosphatase inhibitor cocktail, 1 mM phenylmethylsulfonylfluoride, 1 mM sodium orthovanadate (Sigma), and 10 mM β-glycerophosphate (Sigma). The extracted proteins were centrifuged at 13,000× g rpm, separated via sodium dodecyl sulfate polyacrylamide gel electrophoresis, and transferred to polyvinylidene fluoride membranes. Nonspecific proteins were blocked by adding 5% skim milk. After blocking, primary antibodies were incubated overnight at 4 °C. After washing with the PBS-T buffer, the secondary antibodies were treated at room temperature for 2 h. For detection, the antibodies were developed with Super Signal® West Femto Substrate (ThermoFisher, Waltham, MN, USA) and analyzed on a Fusion Solo Chemiluminescence System (Vilber Lourmat, Paris, France) ECL detection system.
(§3) Figure 5 Inhibitory effects of coumarin derivative 2 on LPS-induced phosphorylation of MAPKs and NF-κB p65 in RAW264.7 cells. […]

[1] = tested on: LPS-stimulated RAW264.7 cells; assay: NO production (Griess reagent) in LPS-stimulated RAW264.7 cells; format: cell-based, Mouse
Protocol: A high concentration of NO promotes the synthesis of inflammatory mediators, leading to an inflammatory response, and has been reported to be a cause of various immune diseases. Therefore, this study was conducted to investigate the effect of coumarin derivatives on the production of NO induced by LPS stimulation in RAW264.7 cells. The cells were treated with coumarin derivatives at concentrations of 20, 40, and 80 μM for 2 h. Then, the cells were treated with LPS. After 20 h, the culture supernatant was recovered, and the amount of NO was measured. […] The anti-inflammatory activity of these derivatives depended on the position of the substituted group rather than the electron density of the substituted group.
The Griess reagent was used to measure NO production. RAW264.7 cells were seeded into a 96-well plate and cultured for 24 h. The cells were treated with 20, 40, and 80 μM of coumarin derivatives, cultured for 2 h, and then cultured with LPS (500 ng/mL) for 20 h. The same amount of cell supernatant and Griess reagent were used for the reaction, and absorbance was measured at 540 nm.

in vitro = format: cell-based; conditions: mouse, RAW264.7 cells, then LPS (500 ng/mL) 20 h, read-out: Cell viability, Average (%)
Protocol: To investigate the anti-inflammatory activity of coumarin derivatives, cell viability was analyzed by treating RAW264.7 cells with 23 types of coumarin derivatives at concentrations of 20, 40, and 80 μM for 2 h and with LPS for 20 h.
Mouse macrophage RAW264.7 cells were purchased from the Korea Cell Line Bank (Seoul, Republic of Korea) and cultured in Dulbecco’s Modified Eagle Medium (Corning, NY, USA) containing 10% fetal bovine serum and 1% penicillin/streptomycin at 37 °C and 5% CO2. The medium was changed every 2 days and subcultured when the cells grew > 80%.
EZ-Cytox cell viability assay kit (Dogen, Suwon, Republic of Korea) was used to measure cell viability according to the manufacturer’s instructions. RAW264.7 cells were seeded into a 96-well plate (1 × 10^5 cells/well) and treated with coumarin derivatives at concentrations of 20, 40, and 80 μM. After 2 h, the cells were treated with LPS (500 ng/mL) and cultured for 24 h in a 37 °C, 5% CO2 incubator. The culture supernatant was treated with 10% EZ-Cytox reagent, and a microplate reader was used to measure the absorbance at 450 nm.

NF-κB p65 = assay: LPS-induced phosphorylation of NF-κB p65 (immunoblotting) in RAW264.7 cells; format: cell-based, Mouse; conditions: 20, 40, and 80 μM pretreatment 2 h; LPS 500 ng/mL 30 min
Protocol: as §1, §2, §3

JNK = assay: LPS-induced phosphorylation of JNK (immunoblotting) in RAW264.7 cells; format: cell-based, Mouse; conditions: 20, 40, and 80 μM pretreatment 2 h; LPS 500 ng/mL 30 min
Protocol: as §1, §2, §3

IL-6 mRNA = IL-6 mRNA expression (qRT-PCR) in LPS-stimulated RAW264.7 cells; format: cell-based, Mouse; conditions: 20, 40, and 80 μM; 2 h pretreatment, LPS 500 ng/mL 6 h
Protocol: RAW264.7 cells were seeded into a 6-well plate (2 × 10^6 cells/well) and cultured for 24 h. The cells were treated with coumarin derivative 2 at 20, 40, and 80 μM and cultured for 2 h and with LPS (500 ng/mL) for 6 h.
The cells were washed with phosphate-buffered saline (PBS) and lysed with the RNeasy Mini kit (Qiagen, Hilden, Germany) for RNA isolation. RNA was converted to cDNA using the AccuPower reverse transcriptase Premix Kit (Bioneer, Daejeon, Republic of Korea). A Power SYBR Green PCR Master Mix (Applied Biosystems, Waltham, MN, USA) was used to perform polymerase chain reaction amplification. Amplification conditions were selected within the Quant 3 PCR system (Applied Biosystems). The data were normalized to the amount of glyceraldehyde 3-phosphate dehydrogenase.
Figure 3 Effects of coumarin derivative 2 on IL-6 and TNF-α production and mRNA expression in LPS-stimulated RAW264.7 cells. (a) Effect of coumarin derivative 2 on TNF-α and IL-6 production in RAW264.7 cells. The RAW264.7 cells (1 × 10^5/well, 96-well plates) were pretreated with coumarin derivative 2 (20, 40, and 80 μM) for 2 h and incubated with LPS (500 ng/mL) for 20 h. An ELISA kit was used to analyze cell supernatants for TNF-α and IL-6. […] IL-6 and TNF-α mRNA expression levels were measured via a real-time quantitative reverse transcription polymerase chain reaction.

N#CC1=C(N)Oc2c(c(=O)oc3ccccc23)C1c1cccc(F)c1 (stereo not drawn) [Coumarin derivative 2]
Phosphorylation of p38 (p38): inhibited | NO production, Average ([1]; 20 μM for 2 h, then LPS (500 ng/mL) 20 h, LPS alone 25.9, control 3.1): 22.53 µM | NO production, Average (μM) ([1]; 40 μM for 2 h, then LPS (500 ng/mL) 20 h, LPS alone 25.9, control 3.1): 15.24 *** μM | NO production, Average (μM) ([1]; 80 μM for 2 h, then LPS (500 ng/mL) 20 h, LPS alone 25.9, control 3.1): 10.17 *** μM | Anti-inflammatory effect (inhibition of NO secretion), in words ([1]; 20, 40, and 80 μM, compared with LPS-only treatment): inhibited NO secretion in a concentration-dependent manner | IC50 ([1]; Mus musculus, RAW264.7, read-out: IC50 of NO production inhibition): 33.4 µM | viability at 22 h, 20 μM (in vitro; 20 μM for 2 h): 106% | viability at 22 h, 40 μM (in vitro; 40 μM for 2 h): 97.1% | viability at 22 h, 80 μM (in vitro; 80 μM for 2 h): 101% | p65 phosphorylation (NF-κB p65): inhibited | Phosphorylation of JNK (JNK): inhibited | IL-6 mRNA expression (IL-6 mRNA): significantly suppressed
